Drawing on patent US6750228B1, “Aromatic sulfone hydroxamic acid metalloprotease inhibitor” (priority 1997, dated 2004), this text covers IC50 for 28 compounds.

Each structure is given as a SMILES string. Where a name gives a salt, the structure may show the parent alone. Read-outs that look alike come from different tables or passages of the source. Some results are limits rather than exact numbers.

What all share (assay): biochemical
The target of one test is T1, MMP-13 (Homo sapiens, UniProt P45452).
T1 construct: made in house; host or cells: baculovirus / insect cells
Here is the method:
(§1) The compounds prepared in the manner described in the Examples above were assayed for activity by an in vitro assay. […] Briefly, 4-aminophenylmercuric acetate (APMA) or trypsin-activated MMPs were incubated with various concentrations of the inhibitor compound at room temperature for 5 minutes.
(§2) The expressed enzyme was purified first over a heparin agarose column and then over a chelating zinc chloride column. The proenzyme was activated by APMA for use in the assay.
(§3) MMP-1 expressed in transfected HT-1080 cells was provided by Dr. Harold Welgus of Washington University, St. Louis, Mo. The enzyme was also activated using APMA and was then purified over a hydroxamic acid column. Dr. Welgus also provided transfected HT-1080 cells that expressed MMP-9. Transfected cells that expressed MMP-2 were provided by Dr. Gregory Goldberg, also of Washington University. Studies with MMP-7 were carried out at pH 7.5 in the presence of 0.02% 2-mercaptoethanol using conditions otherwise similar to those used for the other enzymes. The enzyme was obtaind from a hMMP-7-expressing E. coli clone that was a gift of Dr. Steven Shapiro of Washington University, St. Louis, Mo. Further specifics for preparation and use of these enzymes can be found in the scientific literature describing these enzymes. See, for example, Enzyme Nomenclature, Academic Press, San Diego, Calif. […] The enzyme substrate is a methoxycoumarin-containing polypeptide having the following sequence:
(§4) MCA-ProLeuGlyLeuDpaAlaArgNH2, wherein MCA is methoxycoumarin and Dpa is 3-(2,4-dinitrophenyl)-L-2,3-diaminopropionyl alanine.
(§5) The buffer used for assays contained 100 mM Tris-HCl, 100 mM NaCl, 10 mM CaCl2 and 0.05 percent polyethyleneglycol (23) lauryl ether at a pH value of 7.5. Assays were carried out at room temperature, and dimethyl sulfoxide (DMSO) at a final concentration of 1 percent was used to dissolve inhibitor compound.
(§6) The assayed inhibitor compound in DMSO/buffer solution was compared to an equal amount of DMSO/buffer with no inhibitor as control using Microfluor White Plates (Dynatech). The inhibitor or control solution was maintained in the plate for 10 minutes and the substrate was added to provide a final concentration of 4 μM.
(§7) Inhibition was measured as a reduction in fluorescent intensity as a function of inhibitor concentration, using a Perkin Elmer L550 plate reader. The IC50 values were calculated from those values. The results are set forth in the Inhibition Table A, below, reported in terms of IC50 to three significant figures, where appropriate.

In the next test the target is T2, MMP-1 (Homo sapiens, UniProt P03956).
T2 construct: made in house; host or cells: transfected HT-1080 cells (provided by Dr. Harold Welgus, Washington University)
T2 sequence (P03956 100-469): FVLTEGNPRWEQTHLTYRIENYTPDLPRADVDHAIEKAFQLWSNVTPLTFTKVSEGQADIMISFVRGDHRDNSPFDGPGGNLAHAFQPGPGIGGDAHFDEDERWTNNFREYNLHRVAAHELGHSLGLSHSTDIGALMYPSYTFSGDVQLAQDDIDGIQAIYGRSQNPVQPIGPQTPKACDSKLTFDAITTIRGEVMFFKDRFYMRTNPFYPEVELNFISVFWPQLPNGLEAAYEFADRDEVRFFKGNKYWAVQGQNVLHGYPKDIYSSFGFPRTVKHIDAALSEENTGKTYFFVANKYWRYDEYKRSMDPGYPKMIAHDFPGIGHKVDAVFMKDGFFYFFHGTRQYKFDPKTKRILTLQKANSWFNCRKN
The following applies: read-out: MMP-1 IC50. As for the experimental part: as §1, §2, §3, §4, §5, §6, §7

A further test has as its target T3, MMP-2 (Homo sapiens, UniProt P08253).
T3 construct: made in house; provided by Dr. Gregory Goldberg, Washington University
T3 sequence (P08253 110-660): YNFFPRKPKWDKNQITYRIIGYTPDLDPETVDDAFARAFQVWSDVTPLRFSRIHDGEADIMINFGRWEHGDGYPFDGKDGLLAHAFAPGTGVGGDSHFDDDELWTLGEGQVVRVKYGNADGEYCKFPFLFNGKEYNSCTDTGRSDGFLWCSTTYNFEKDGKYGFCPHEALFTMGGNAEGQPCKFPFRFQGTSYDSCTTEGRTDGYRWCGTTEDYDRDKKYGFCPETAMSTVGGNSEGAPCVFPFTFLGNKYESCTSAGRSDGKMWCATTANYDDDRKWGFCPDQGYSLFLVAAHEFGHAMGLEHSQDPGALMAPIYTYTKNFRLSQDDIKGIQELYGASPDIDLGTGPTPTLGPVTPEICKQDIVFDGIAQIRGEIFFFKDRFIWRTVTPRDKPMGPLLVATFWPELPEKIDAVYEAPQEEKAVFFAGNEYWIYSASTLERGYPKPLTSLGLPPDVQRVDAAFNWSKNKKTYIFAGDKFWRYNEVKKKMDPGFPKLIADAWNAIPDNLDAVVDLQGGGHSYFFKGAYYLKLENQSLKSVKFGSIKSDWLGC
As for the experimental part: as §1, §2, §3, §4, §5, §6, §7

The mark [1] stands for this setting: recombinant human MMP-2, MCA peptide substrate 4 μM, pH 7.5, room temperature, read-out: MMP-2 IC50.
[2] abbreviates: recombinant human MMP-13, MCA peptide substrate 4 μM, pH 7.5, room temperature, read-out: MMP-13 IC50.
The mark [3] stands for this setting: recombinant human MMP-1, MCA peptide substrate 4 μM, pH 7.5, room temperature.

As a reminder, the IC50 is the midpoint of a concentration-inhibition curve. Turning to `C[C@H]1C[C@H](C)CN(C(=O)C2CCN(c3ccc(S(=O)(=O)C4(C(=O)NO)CCNCC4)cc3)CC2)C1` (relative stereo) [Example 238, rel-4-[[4-[4-[[(3R,5R)-3,5-Dimethyl-1-piperidinyl]carbonyl]-1-piperidinyl]phenyl]sulfonyl]-N-hydroxy-4-piperidinecarboxamide, Monohydrochloride], the values for the IC50 at MMP-13 (read-out: MMP-13 IC50) and on MMP-1 were 80 nM and more than 10000 nM, respectively.
On to `C[C@H]1C[C@H](C)CN(C(=O)C2CCN(c3ccc(S(=O)(=O)C4(C(=O)NO)CCN(C(=O)OC(C)(C)C)CC4)cc3)CC2)C1` (relative stereo) [Example 239, rel-1,1-Dimethylethyl 4-[[4-[4-[[(3R,5R)-3,5-Dimethyl-1-piperidinyl]carbonyl]-1-piperidinyl]-phenyl]sulfonyl]-4-[(hydroxyamino)carbonyl]-1-piperidinecarboxylate], for which the half-inhibitory concentration (IC50) was 8300 nM on MMP-2 (read-out: MMP-2 IC50), 9 nM at MMP-13 (read-out: MMP-13 IC50) and more than 10000 nM at MMP-1.
As for `CN(C)CCN1CCN(C(=O)C2CCN(c3ccc(S(=O)(=O)C4(C(=O)NO)CCOCC4)cc3)CC2)CC1` [Example 23], the figures for the IC50 at MMP-13 (read-out: MMP-13 IC50) and on MMP-1 were 90 nM and more than 10000 nM, respectively.
Consider `CCOc1ccccc1N1CCN(C(=O)C2CCN(c3ccc(S(=O)(=O)C4(C(=O)NO)CCOCC4)cc3)CC2)CC1` [Example 24], for which the half-maximal inhibitory concentration (IC50) at MMP-2 (read-out: MMP-2 IC50) is 4500 nM; at MMP-13 (read-out: MMP-13 IC50), 23.5 nM; at MMP-1, more than 10000 nM.
For the compound `O=C(C1CCN(c2ccc(S(=O)(=O)C3(C(=O)NO)CCOCC3)cc2)CC1)N1CCN(c2ccc(F)cc2)CC1` [Example 25], the half-inhibitory concentration (IC50) was 1600 nM against MMP-2 (MMP-2 IC50 (nM)), 6 nM on MMP-13 (read-out: MMP-13 IC50) and more than 10000 nM on MMP-1.
On to `O=C(C1CCN(c2ccc(S(=O)(=O)C3(C(=O)NO)CCOCC3)cc2)CC1)N1CCN(c2ccccn2)CC1` [Example 26], for which the values for the concentration for half-maximal inhibition (IC50) at MMP-2 (read-out: MMP-2 IC50) and on MMP-1 were 3600 nM and more than 10000 nM, respectively.
As to `O=C(C1CCN(c2ccc(S(=O)(=O)C3(C(=O)NO)CCOCC3)cc2)CC1)N1CCN(c2ccc(C(F)(F)F)cc2[N+](=O)[O-])CC1` [Example 32], the IC50 was 800 nM at MMP-2 (read-out: MMP-2 IC50), 10 nM on MMP-13 (read-out: MMP-13 IC50) and more than 10000 nM on MMP-1.
For `O=C(C1CCN(c2ccc(S(=O)(=O)C3(C(=O)NO)CCOCC3)cc2)CC1)N1CCN(c2ncccc2C(F)(F)F)CC1` [Example 33], in that order: 4500 nM, 20 nM and more than 10000 nM.
As for `CCCN(CC1CC1)C(=O)C1CCN(c2ccc(S(=O)(=O)C3(C(=O)NO)CCOCC3)cc2)CC1` [Example 35], the IC50 was 9000 nM on MMP-2 (setting [1]), 30 nM on MMP-13 (setting [2]) and more than 10000 nM at MMP-1 (setting [3]).
In the case of `O=C(C1CCN(c2ccc(S(=O)(=O)C3(C(=O)NO)CCOCC3)cc2)CC1)N1CCN(c2ccc(F)cc2F)CC1` [Example 36], the IC50 at MMP-2 (read-out: MMP-2 IC50) was 2100 nM; on MMP-13 (read-out: MMP-13 IC50), 15.8 nM; at MMP-1, more than 10000 nM.
Turning to `O=C(C1CCN(c2ccc(S(=O)(=O)C3(C(=O)NO)CCOCC3)cc2)CC1)N1CCN(c2ccncc2)CC1` [Example 37], the IC50 on MMP-2 (read-out: MMP-2 IC50) is 1750 nM; at MMP-13 (MMP-13 IC50 (nM), recombinant human MMP-13, MCA peptide substrate 4 μM, pH 7.5, room temperature), 30 nM; at MMP-1, more than 10000 nM.
Regarding `C[C@@H]1CN(C(=O)C2CCN(c3ccc(S(=O)(=O)C4(C(=O)NO)CCOCC4)cc3)CC2)C[C@H](C)N1` [Example 46], the IC50 is 5700 nM against MMP-2 (MMP-2 IC50 (nM)) and more than 10000 nM at MMP-1.
Consider `C[C@@H]1C[C@H](C)CN(C(=O)C2CCN(c3ccc(S(=O)(=O)C4(C(=O)NO)CCNCC4)cc3)CC2)C1` [Example 240, rel-4-[[4-[4-[[(3R,5S)-3,5-Dimethyl-1-piperidinyl]carbonyl]-1-piperidinyl]phenyl]sulfonyl]-N-hydroxy-4-piperidinecarboxamide, Monohydrochloride], for which the IC50 is 76.9 nM on MMP-13 (setting [2]) and more than 10000 nM at MMP-1 (setting [3]).
For `CC1CC(C)CN(C(=O)C2CCN(c3ccc(S(=O)(=O)C4(C(=O)NO)CCN(C(=O)CN5CCN(CCN(C)C)CC5)CC4)cc3)CC2)C1` (stereo not shown) [Example 308], in that order: 40 nM and more than 10000 nM.
As to `CC1CC(C)CN(C(=O)C2CCN(c3ccc(S(=O)(=O)C4(C(=O)NO)CCN(C(=O)CNCC(F)(F)F)CC4)cc3)CC2)C1` (stereo not shown) [Example 310], the IC50 on MMP-13 (setting [2]) was 60 nM; at MMP-1 (setting [3]), more than 10000 nM.
On the same counts, the results for `O=C(NO)C1(S(=O)(=O)c2ccc(N3CCC(SCc4ccccc4)CC3)cc2)CCN(C2CC2)CC1` [Example 417] are 0.7 nM and more than 10000 nM.
`COc1ccc(C(=O)C2CCN(c3ccc(S(=O)(=O)C4(C(=O)NO)CCN(C(=O)c5ccco5)CC4)cc3)CC2)cc1` [Example 436]: the half-maximal inhibitory concentration (IC50) on MMP-1 (setting [3]) is more than 10000 nM.
Turning to `COc1ccc(C(=O)C2CCN(c3ccc(S(=O)(=O)C4(C(=O)NO)CCNCC4)cc3)CC2)cc1` [Example 437], the half-maximal inhibitory concentration (IC50) at MMP-1 (setting [3]) was more than 10000 nM.
Take `O=C(NO)C1(S(=O)(=O)c2ccc(N3CCC(SCc4ccc(OC(F)(F)F)cc4)CC3)cc2)CCN(C2CC2)CC1` [Example 454]: the IC50 on MMP-1 (setting [3]) is more than 10000 nM.
Turning to `O=C(NO)C1(S(=O)(=O)c2ccc(N3CCC(SCc4ccc(OC(F)(F)F)cc4)CC3)cc2)CCNCC1` [Example 460], on MMP-1 (setting [3]), the IC50 was more than 10000 nM.
On to `O=C(NO)C1(S(=O)(=O)c2ccc(N3CCC(SCc4ccccc4Cl)CC3)cc2)CCN(C2CC2)CC1` [Example 461], for which the IC50 at MMP-1 (setting [3]) was more than 10000 nM.
The same measure, in the same setting: then `O=C(NO)C1(S(=O)(=O)c2ccc(N3CCC(SCc4cccc(C(F)(F)F)c4)CC3)cc2)CCN(C2CC2)CC1` [Example 463], with more than 10000 nM.
For `CN(C)c1ccc(C(=O)C2CCN(c3ccc(S(=O)(=O)C4(C(=O)NO)CCOCC4)cc3)CC2)cc1` [Example 802], the IC50 is 2.3 nM on MMP-13 (setting [2]) and more than 10000 nM at MMP-1 (setting [3]).
As to `COc1cc(C(=O)C2CCN(c3ccc(S(=O)(=O)C4(C(=O)NO)CCOCC4)cc3)CC2)ccc1Cl` [Example 859], the half-maximal inhibitory concentration (IC50) on MMP-2 (setting [1]) worked out at 440 nM; on MMP-13 (setting [2]), 5.5 nM.
On the same counts, the results for `O=C(Cc1ccc(Cl)cc1)C1CCN(c2ccc(S(=O)(=O)C3(C(=O)NO)CCOCC3)cc2)CC1` [Example 861] are 34.9 nM and 2 nM.
On the same counts, the results for `COc1ccc(CC(=O)C2CCN(c3ccc(S(=O)(=O)C4(C(=O)NO)CCOCC4)cc3)CC2)cc1` [Example 862] are 40 nM and 1.7 nM.
For the compound `Cn1ccc2cc(C(=O)C3CCN(c4ccc(S(=O)(=O)C5(C(=O)NO)CCOCC5)cc4)CC3)ccc21` [Example 867], the concentration for half-maximal inhibition (IC50) was 16.5 nM at MMP-13 (setting [2]) and more than 10000 nM on MMP-1 (setting [3]).
Take `Cc1ccc(C2CCN(c3ccc(S(=O)(=O)C4(C(=O)NO)CCOCC4)cc3)CC2)cc1C` [Example 869]: the IC50 stood at 76.9 nM at MMP-2 (setting [1]) and 2 nM on MMP-13 (setting [2]).
